This is an account of results in ChEMBL document CHEMBL1833806, “Mapping the intestinal alpha-glucogenic enzyme specificities of starch digesting maltase-glucoamylase and sucrase-isomaltase” (Bioorg Med Chem, 2011).

A short description of assay [1]: Selectivity ratio of Ki for human ntMGAM to Ki for mouse ctMGAM-N20.
Assay [2] is described as follows: Inhibition of human ntMGAM expressed in Drosophila S2 cells assessed as amount of glucose produced using maltose as a substrate after 45 mins by glucose oxidase assay. It counts as cell-based.
Assay [3] can be described thus: Inhibition of mouse his-tagged ctMGAM-N2 expressed in Sf9 cells assessed as amount of glucose produced using maltose as a substrate after 45 mins by glucose oxidase assay.
The nature of assay [4]: Selectivity ratio of Ki for human ntMGAM to Ki for mouse ctSI.
Assay [5] in a line: Selectivity ratio of Ki for human ntMGAM to Ki for mouse ctMGAM-N2.
Assay [6] is described as follows: Selectivity ratio of Ki for human ntSI to Ki for mouse ctMGAM-N2.
A short description of assay [7]: Inhibition of mouse his-tagged ctMGAM-N20 expressed in Sf9 cells assessed as amount of glucose produced using maltose as a substrate after 45 mins by glucose oxidase assay.
Assay [8] in a line: Selectivity ratio of Ki for human ntSI to Ki for mouse ctMGAM-N20.
The species named for assay [9] is Mus musculus. In words: Selectivity ratio of Ki for mouse ctSI to Ki for mouse ctMGAM-N2.
A short description of assay [10]: Inhibition of mouse his-tagged ctSI expressed in Sf9 cells assessed as amount of glucose produced using maltose as a substrate after 45 mins by glucose oxidase assay.
Assay [11] can be described thus: Selectivity ratio of Ki for human ntSI to Ki for mouse ctSI.
Assay [12] in a line: Inhibition of human ntSI expressed in Drosophila S2 cells assessed as amount of glucose produced using maltose as a substrate after 45 mins by glucose oxidase assay. It counts as cell-based.
For assay [13], the species on record is Mus musculus. In words: Selectivity ratio of Ki for mouse ctSI to Ki for mouse ctMGAM-N20.
For assay [14], the species on record is Mus musculus. In words: Selectivity ratio of Ki for mouse ctMGAM-N20 to Ki for mouse ctMGAM-N2.
A short description of assay [15]: Activity of mouse his-tagged ctSI expressed in Sf9 cells assessed as amount of glucose produced after 45 mins by glucose oxidase assay.
Assay [16] in a line: Activity of human ntSI expressed in Drosophila S2 cells assessed as amount of glucose produced after 45 mins by glucose oxidase assay. It counts as cell-based.
Assay [17] can be described thus: Activity of human ntMGAM expressed in Drosophila S2 cells assessed as amount of glucose produced after 45 mins by glucose oxidase assay. The format is cell-based.
Assay [18] is filed under the species Mus musculus. As to the kind of experiment: Ratio of Km for mouse ctMGAM-N20 to Km for mouse ctMGAM-N2.
Assay [19] in a line: Activity of mouse his-tagged ctMGAM-N2 expressed in Sf9 cells assessed as amount of glucose produced after 45 mins by glucose oxidase assay.
A short description of assay [20]: Activity of mouse his-tagged ctMGAM-N20 expressed in Sf9 cells assessed as amount of glucose produced after 45 mins by glucose oxidase assay.
Assay [21] is described as follows: Activity of mouse his-tagged ctMGAM-N2 expressed in Sf9 cells assessed as amount of glucose produced using maltose as a substrate after 45 mins by glucose oxidase assay.
Assay [22] is described as follows: Activity of mouse his-tagged ctMGAM-N20 expressed in Sf9 cells assessed as amount of glucose produced using maltose as a substrate after 45 mins by glucose oxidase assay.
The species named for another assay is Homo sapiens. In words: Selectivity ratio of Ki for human ntMGAM to Ki for human ntSI.
Assay [23] is filed under the species Mus musculus. In words: Selectivity ratio of Ki for mouse ctMGAM-N2 to Ki for mouse ctSI.
The species entered for assay [24] is Mus musculus. In words: Selectivity ratio of Ki for mouse ctMGAM-N2 to Ki for mouse ctMGAM-N20.

The structures appear in SMILES notation.

On to `C[C@H]1O[C@H](O[C@H]2[C@H](O)[C@@H](O)[C@@H](O[C@H]3[C@H](O)[C@@H](O)C(O)O[C@@H]3CO)O[C@@H]2CO)[C@H](O)[C@@H](O)[C@@H]1N[C@H]1C=C(CO)[C@@H](O)[C@H](O)[C@H]1O` (stereo not given in full) [ACARBOSE], for which the Ratio Ki in [1] was found to be 1000; in assay [4], 100; in assay [5], 1000; in assay [6] it was 1000; in [8] it was 1000; in the assay listed under Mus musculus [9], 1000. Also, the Ratio Ki in assay [11] is 100; in the assay filed under Mus musculus [13], 1000. Also, the inhibition constant (Ki) – broadly, a dissociation constant, usually derived from enzyme kinetics or from competition with a known ligand – in assay [2] is 62000 nM; in assay [3], 9 nM; in [7] it was 28 nM; in [10], 246 nM; in assay [12], 14000 nM.

`O=S(=O)([O-])O[C@@H](CO)[C@H](O)C[Se+]1C[C@@H](O)[C@H](O)[C@H]1CO` (stereo not given in full) [BLINTOL]: the inhibitory constant (Ki) in assay [2] was determined as 490 nM; in assay [3], 18 nM; in [7], 13 nM; in assay [10] it was 29 nM; in assay [12], 160 nM. Also, the Ratio Ki (in assay [5]; in [6]; in the assay listed under Mus musculus [14]; in the assay listed under Mus musculus [9]) was 10 each time.

On to `OC[C@@H]1[C@@H](O)[C@H](O)C[S+]1C[C@@H](O)[C@@H](O)[C@H](O)[C@H](O)[C@@H](O)CO` (stereo not given in full) [DE-O-SULFONATED KOTALANOL], for which the Ki in assay [2] was found to be 30 nM; in assay [3] it was 26 nM; in assay [7], 78 nM; in assay [10], 26 nM; in assay [12], 12 nM.

`O=S(=O)([O-])O[C@@H]([C@H](O)[C@H](O)[C@@H](O)CO)[C@H](O)C[S+]1C[C@@H](O)[C@H](O)[C@H]1CO` (stereo not given in full) [KOTALANOL]: the Ki in assay [2] was 190 nM; in assay [3] it was 64 nM; in assay [7], 92 nM; in assay [10], 42 nM; in assay [12] it was 600 nM.

Regarding `OC[C@H]1O[C@H](O[C@H]2[C@H](O)[C@@H](O)[C@H](O)O[C@@H]2CO)[C@H](O)[C@@H](O)[C@@H]1O` [MALTOSE], the Km (as a rule, the concentration of substrate that gives half-maximal velocity) is 2500 µM in [15]; 7100 µM in [16]; 4300 µM in assay [17]; 2500 µM in [10]; 1590 µM in assay [19]; 1910 µM in assay [20]. The Km in [21] is 1590 µM; in assay [22] it was 1910 µM. For the same compound, the Ratio in the assay filed under Mus musculus [18] was 4.

`OCCN1C[C@H](O)[C@@H](O)[C@H](O)[C@H]1CO` [MIGLITOL]: the Ratio Ki (in [1]; in assay [4]; in [5]; in the assay filed under Homo sapiens) was 4 each time. Further, the Ki in [2] was determined as 1000 nM; in [3], 211 nM; in [7] it was 230 nM; in assay [10], 130 nM; in assay [12] it was 148 nM.

Turning to `O=S(=O)([O-])O[C@@H](CO)[C@H](O)C[S@+]1C[C@@H](O)[C@H](O)[C@H]1CO` [SALACINOL], the Ratio Ki in assay [1] was 5; in [4], 5; in the assay filed under Mus musculus [23] it was 5; in assay [8], 5; in assay [11], 5; in the assay filed under Mus musculus [24] it was 4. Moreover, the Ki in assay [3] was determined as 213 nM; in [7], 58 nM; in [10], 47 nM; in assay [12] it was 277 nM.
